Assay results reported in the OligoGym collection.
Several values for one entry are separate records, joined by “and”; a condition that tells them apart may be missing. Equal entries are not always repeated. After the bases stand the sugars from the 5' end (letter, count) and the backbone: PS all phosphorothioate, else s phosphorothioate and o phosphodiester by linkage. Methylation of C is not given here. e = 2'-O-(2-methoxyethyl) (MOE); l = locked nucleic acid (LNA); k = constrained ethyl (cEt); d = 2'-deoxy (DNA)

What was measured:
YAP1 = conditions: ASO, SNU-449, 2 µM
HTRA1 = conditions: ASO, U251, 5 µM
MYH7 = conditions: ASO, CC-2580, 5 µM

Q: “ATAGTGCTTTGGAAGA (sugars kkdddddddddekeke, PS)” was tested. Which target mRNA inhibition (YAP1) did it give?
A: 54%

Q: For ATCGACTGCATTAGTT (sugars l3 d10 l3, PS), which target mRNA inhibition (HTRA1) is on record?
A: 99%

Q: How did the target mRNA inhibition (HTRA1) turn out when ATCTACGCATTGTATC (sugars l4 d8 l4, PS) was run?
A: 87%

Q: ATGTGTAAGAAGTACT (sugars l3 d10 l3, PS) was tested. Which target mRNA inhibition (HTRA1) did it give?
A: 70%

Q: ATTGTATCGACTGCAT (sugars l3 d11 l2, PS) was tested. Which target mRNA inhibition (HTRA1) did it give?
A: 99%

Q: How did the target mRNA inhibition (HTRA1) turn out when “CAATGTGTAAGAAGTACTTT (sugars l4 d12 l4, PS)” was run?
A: 79%

Q: How did the target mRNA inhibition (HTRA1) turn out when CTACGCATTGTATCGA (sugars l4 d8 l4, PS) was run?
A: 77%

Q: Which target mRNA inhibition (HTRA1) does the source give for CTATCTACGCATTGTA (sugars l4 d8 l4, PS) here?
A: 95%

Q: With “CTATCTACGCATTGTATC (sugars l2 d12 l4, PS)” as the sequence, how does the target mRNA inhibition (HTRA1) read?
A: 77%

Q: “CTCAGTTAAAGGAGGAGACA (sugars l3 d15 l2, PS)” was tested. Which target mRNA inhibition (HTRA1) did it give?
A: 26%

Q: CTTCTATCTACGCATT (sugars l4 d8 l4, PS) was tested. Which target mRNA inhibition (HTRA1) did it give?
A: 83%

Q: How did the target mRNA inhibition (MYH7) turn out when “CTTGGCAATGATCTCATCC (sugars lldlddddddlddldldll, PS)” was run?
A: 1%

Q: With “CTTGGCAATGATCTCATCC (sugars lldldldddddddldldll, PS)” as the sequence, how does the target mRNA inhibition (MYH7) read?
A: 16% and -4%

Q: Which target mRNA inhibition (MYH7) does the source give for “CTTGGCAATGATCTCATCC (sugars llldddddddlddldldll, PS)” here?
A: 60% and 35%

Q: “GAAGTACTTTAATAGCTCA (sugars l4 d12 l3, PS)” was tested. Which target mRNA inhibition (HTRA1) did it give?
A: 85%

Q: Which target mRNA inhibition (HTRA1) does the source give for “GATGACTCAGTTAAAGGAGG (sugars l2 d15 l3, PS)” here?
A: 57%

Q: With “GCAATGTGTAAGAAGTA (sugars l3 d10 l4, PS)” as the sequence, how does the target mRNA inhibition (HTRA1) read?
A: 59%

Q: How did the target mRNA inhibition (HTRA1) turn out when “TAAGAAGTACTTTAATAG (sugars l4 d10 l4, PS)” was run?
A: 65%

Q: “TAAGAAGTACTTTAATAGC (sugars l4 d11 l4, PS)” was tested. Which target mRNA inhibition (HTRA1) did it give?
A: 80%

Q: For TACGCATTGTATCGAC (sugars l4 d8 l4, PS), which target mRNA inhibition (HTRA1) is on record?
A: 66%

Q: TACTTTAATAGCTCAA (sugars l4 d8 l4, PS) was tested. Which target mRNA inhibition (HTRA1) did it give?
A: 95%

Q: TATCGACTGCATTAGT (sugars l3 d11 l2, PS) was tested. Which target mRNA inhibition (HTRA1) did it give?
A: 98%

Q: For “TATCGACTGCATTAGTT (sugars l4 d10 l3, PS)”, which target mRNA inhibition (HTRA1) is on record?
A: 73%

Q: “TATCGACTGCATTAGTTG (sugars l2 d12 l4, PS)” was tested. Which target mRNA inhibition (HTRA1) did it give?
A: 58%

Q: TATCTACGCATTGTAT (sugars l3 d10 l3, PS) was tested. Which target mRNA inhibition (HTRA1) did it give?
A: 98% and 89%

Q: Which target mRNA inhibition (HTRA1) does the source give for “TATCTACGCATTGTATCG (sugars l4 d12 l2, PS)” here?
A: 71%

Q: With “TCAGCTTGGCGATGATCT (sugars l2 d9 l1 d2 l4, PS)” as the sequence, how does the target mRNA inhibition (MYH7) read?
A: 31% and 40%

Q: “TCAGCTTGGCGATGATCT (sugars l2 d14 l2, PS)” was tested. Which target mRNA inhibition (MYH7) did it give?
A: 56% and 33%

Q: “TCAGCTTGGCGATGATCT (sugars lddldddddddlddllll, PS)” was tested. Which target mRNA inhibition (MYH7) did it give?
A: 43% and 45%

Q: With “TCAGCTTGGCGATGATCT (sugars lddldldddddddlddll, PS)” as the sequence, how does the target mRNA inhibition (MYH7) read?
A: 31% and 9%

Q: Which target mRNA inhibition (MYH7) does the source give for “TCAGCTTGGCGATGATCT (sugars lddldlddddddldllll, PS)” here?
A: 25% and 12%

Q: “TCAGCTTGGCGATGATCT (sugars ldldlddddddldlddll, PS)” was tested. Which target mRNA inhibition (MYH7) did it give?
A: -4% and -12%

Q: With “TCAGCTTGGCGATGATCT (sugars ldldlddddddlldldll, PS)” as the sequence, how does the target mRNA inhibition (MYH7) read?
A: -30% and -41%

Q: Which target mRNA inhibition (MYH7) does the source give for “TCAGCTTGGCGATGATCT (sugars llddldddddddldddll, PS)” here?
A: 35% and 17%

Q: Which target mRNA inhibition (MYH7) does the source give for “TCAGCTTGGCGATGATCT (sugars llddldddddddldldll, PS)” here?
A: 14% and 0%

Q: For “TCAGCTTGGCGATGATCT (sugars lldldddddddddldlll, PS)”, which target mRNA inhibition (MYH7) is on record?
A: 59% and 40%

Q: With “TCAGTTAAAGGAGGAGACAA (sugars l3 d14 l3, PS)” as the sequence, how does the target mRNA inhibition (HTRA1) read?
A: 40%

Q: For TCGACTGCATTAGTTG (sugars l3 d11 l2, PS), which target mRNA inhibition (HTRA1) is on record?
A: 97%

Q: For TCTACGCATTGTATCG (sugars l4 d8 l4, PS), which target mRNA inhibition (HTRA1) is on record?
A: 96%
